Data: patent US20220218801A1, “COMBINATION GMCI AND ATRI CANCER TREATMENT” (Candel Therapeutics, Inc., priority 2019, published 2022)

Columns and labels:
[1] = test system: glioma cell line (GL261); assay: glioma cell viability assay (Presto Blue, fluorescence); assay type: cell-based
Method: The combination of GMCI and ATRi (AZD6738) is examined for anti-cancer activity. A schematic of an experimental design to test the effect of combining of GMCI and ATR inhibitor combination on glioma cells is illustrated in FIG. 1. At the start of the study (Day 0), a glioma cell line (GL261; NCI-Frederick Cancer Research Tumor Repository, Frederick, Md.) is plated at a density of 5000 cells per well. For the samples on which GMCI is administered, on the following day (Day 1) AdV-tk vector is added at a concentration of approximately […] (100 MOI). Starting on Day 2, to the samples being treated with GMCI, ganciclovir is added to a concentration of 5 μg/ml. […] At Day 4, cell viability is assayed by the addition of a vial dye such as Presto Blue assay (Life Technologies) and quantified by fluorescence spectrometry.
Synergism was analyzed by the Combination Index (CI) calculation with the formula of Chou-Talalay (Chou 2010; Ting-Chao Chou 1984). CI values above 1.00 indicate antagonistic effect of combination agents, a CI of 1.00 indicates an additive effect, and CI values below 1.00 indicate synergistic effect.

[2] = test system: glioma cell line (GL261); assay: double-stranded DNA breaks by H2AX Ser139 staining (confocal microscopy); assay type: cell-based; conditions: 6 hours after addition of ATRi (IC50 concentration) and/or GCV 5 μg/ml, compared with untreated cells
Method: In another experiment, the frequency of double-stranded DNA breaks in glioma cells treated with GMCI, ATRi, or the combination. The formation of double-stranded DNA breaks was examined by staining the cells for H2AX-Ser139 as previously performed (Speranza et al. 2017).
At the start of the study (Day 0), glioma cell line (GL261; NCI-Frederick Cancer Research Tumor Repository, Frederick, Md.) is plated at a density of 12,500 cells per well of a 24 well plate containing glass coverslips. For the samples to which GMCI is administered, AdV-tk vector is added at a concentration of approximately 1.25×10^6 vp/ml (100 MOI). Starting on Day 1, to the samples being treated with GMCI, ganciclovir is added to a concentration of 5 μg/ml. In samples exposed to ATRi, starting at Day 1 AZD6738 was added at a concentration to the IC50 concentration of the drug. either in combination with GMCI or alone, as indicated. At a timepoint 6 hours after addition of the ATRi and/or GCV, the cells were fixed in 4% paraformaldehyde in phosphate buffered saline. After blocking with 5% donkey serum/0.5% Tween 20, 0.02% TX100/PBS for 1 hour at room temperature (RT), cells were washed 3 times with washing buffer (0.5% Tween 20, 0.02% TX100/PBS) and stained with H2AX Ser139 antibody (1:100). The next day the samples were washed and incubated for 2 hours with a fluorescently-tagged secondary antibody plus Hoechst 33342. […]

## C[C@@H]1COCCN1c1cc(C2([S@](C)(=N)=O)CC2)nc(-c2cc[nH]c3nccc2-3)n1 [AZD6738]
[1]; GL261, single agents, AZD6738 at IC50 (1 μM) or ½ IC50 (0.5 μM) from Day 2, GMCI = AdV-tk 100 MOI + ganciclovir 5 μg/ml, read at Day 4
  cell viability (fluorescence normalized to no treatment): cytotoxic activity
[1]; Mus musculus, GL261 glioma cells, read-out: IC50 concentration
  IC50: 1000 nM
[2]
  double-stranded DNA breaks / H2AX(Ser139) staining: Double-stranded DNA breaks occur
[2]; listed as ATRi
  double-stranded DNA breaks / H2AX(Ser139) staining: large increase in H2AX staining
